Measurements as given in PubChem BioAssay (NCI).
Several values for one entry are separate records, joined by “and”; a condition that tells them apart may be missing. Equal entries are not always repeated.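 These data come from cells grown in 96-well plates and exposed to compound for 48 hours at five concentrations. Here, GI50 denotes the concentration required for 50% inhibition of growth. TGI: concentration producing complete growth inhibition.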

Experiments:
Assay in all cases: NCI anticancer screen, dose series, 48 h
K-562 leukemia = tested on: K-562 leukemia
NCI-H23 lung = tested on: NCI-H23 lung
OVCAR-3 ovarian = tested on: OVCAR-3 ovarian
SF-268 CNS = tested on: SF-268 CNS
SF-295 CNS = tested on: SF-295 CNS
SK-OV-3 ovarian = tested on: SK-OV-3 ovarian
SN12C renal = tested on: SN12C renal
SW-620 colon = tested on: SW-620 colon
TK-10 renal = tested on: TK-10 renal
HL-60(TB) leukemia = tested on: HL-60(TB) leukemia

Row | Structure (SMILES) | TGI (K-562 leukemia) | TGI (NCI-H23 lung) | TGI (OVCAR-3 ovarian) | TGI (SF-268 CNS) | TGI (SF-295 CNS) | TGI (SK-OV-3 ovarian) | TGI (SN12C renal) | TGI (SW-620 colon) | TGI (TK-10 renal) | GI50 (HL-60(TB) leukemia) | TGI (HL-60(TB) leukemia) | GI50 (K-562 leukemia) | GI50 (NCI-H23 lung) | GI50 (OVCAR-3 ovarian) | GI50 (SF-268 CNS) | GI50 (SF-295 CNS) | GI50 (SN12C renal) | GI50 (SW-620 colon) | GI50 (SK-OV-3 ovarian) | GI50 (TK-10 renal)
1 | CC(CO)[C@H]1OC(=O)C=C2[C@@]13O[C@@H]3[C@H]1OC(=O)[C@@]3(C)[C@H]4O[C@H]4C[C@@]2(C)[C@@H]13 (stereo not given in full) | > 100 µM | > 36.6 µM | > 30.1 µM | > 25.8 µM | > 33.4 µM | > 57 µM | 13.6 µM | > 100 µM | > 28.2 µM |  |  |  |  |  |  |  |  |  |  | 
2 | CC[O-].CC[O-].O=C1C(=C([O-])c2ccccc2)C(=O)c2ccccc21.O=C1C(=C([O-])c2ccccc2)C(=O)c2ccccc21.[Ti+4] | > 100 µM | > 100 µM | > 100 µM | > 10 µM | > 100 µM |  | 99 µM | > 100 µM |  | > 100 µM | > 100 µM | > 100 µM | 92.3 µM | > 100 µM | > 10 µM | 98.4 µM | 26.6 µM | > 100 µM |  | 
3 | Nc1c(C(=O)Nc2ccc([As](=O)(O)O)cc2)cnc2nnnn12 | > 100 µM | > 100 µM | > 100 µM | > 100 µM | > 100 µM | > 100 µM | > 100 µM | > 100 µM | > 100 µM |  | > 100 µM |  |  |  |  |  |  |  |  | 
4 | Cc1ccc(C(=O)/C(=C/c2ccc([N+](=O)[O-])cc2)S(=O)Cc2ccccc2)cc1 (stereo not given) | 12.4 µM | 5.25 µM | 2.57 µM | 3.72 µM | 5.96 µM | 12.5 µM | 3.4 µM | 2.94 µM | 3.26 µM | 1.59 µM | 5.81 µM | 0.623 µM | 1.86 µM | 1.28 µM | 1.71 µM | 2.45 µM | 1.71 µM | 0.916 µM | 3.46 µM | 1.78 µM
5 | CSc1nc2c(c(O)c(C)c(=O)n2C2OC(COC(C)=O)C(OC(C)=O)C(OC(C)=O)C2OC(C)=O)c(=O)n1C (stereo not given) | > 100 µM | > 100 µM | > 100 µM | > 100 µM | > 100 µM | > 100 µM | > 100 µM | > 100 µM | > 100 µM |  | > 100 µM |  |  |  |  |  |  |  |  | 
6 | COC(=O)c1nc(NN)[nH]c(=O)c1CCCCCc1c(C(=O)OC)[nH]c(NN)cc1=O | > 100 µM | > 100 µM | > 100 µM | > 100 µM | > 100 µM | > 100 µM | > 100 µM | > 100 µM | > 100 µM |  | > 100 µM |  |  |  |  |  |  |  |  | 
7 | CC(=O)c1cccc(N(/C=C/C(=O)C(F)(F)F)CC(=O)c2ccc(Cl)cc2)c1 | > 100 µM | > 100 µM | > 100 µM | > 100 µM | > 100 µM | > 100 µM | > 100 µM | > 100 µM | > 100 µM |  |  | > 100 µM | > 100 µM | > 100 µM | > 100 µM | > 100 µM | > 100 µM | > 100 µM | > 100 µM | > 100 µM
8 | COc1ccc(C(=O)N2c3ccccc3Sc3ccccc32)c(F)c1 | > 100 µM | > 100 µM | > 100 µM | > 100 µM | > 100 µM | > 100 µM | > 100 µM | > 100 µM | > 100 µM | 0.325 µM | > 100 µM | 0.442 µM | 3.42 µM | 0.418 µM | 10.7 µM | 0.395 µM | 1.94 µM | 0.458 µM | 4.13 µM | 10.4 µM
9 | CN1C2CC(C#N)C1C=CC2=O (stereo not given) | 90.2 µM and > 100 µM | 48.6 µM and > 100 µM | 30.7 µM and > 100 µM | > 100 µM | 19.1 µM and > 100 µM | 62.4 µM and > 100 µM | > 100 µM | 43.7 µM and > 100 µM | > 100 µM |  | 53.4 µM and > 100 µM | 14 µM and 78.1 µM | 16.2 µM and 60.1 µM | 15.5 µM and > 100 µM | 27.2 µM and > 100 µM |  | > 100 µM | 15.1 µM and 72.5 µM |  | 40.5 µM and > 100 µM
10 | Cc1ccc(C(=O)Nc2ccc(CN3CCN(C)CC3)c(C(F)(F)F)c2)cc1C#Cc1cnc(N)c2ccc(F)cc12 | 0.9 µM | 2.24 µM | 1.06 µM | 1.88 µM | 2.34 µM | 2.88 µM | 0.73 µM | 0.638 µM | 2.72 µM | 0.198 µM | 1.35 µM | 0.00431 µM | 0.584 µM | 0.359 µM | 0.259 µM | 0.633 µM | 0.0793 µM | 0.251 µM | 0.684 µM | 0.416 µM
11 | CC12CC3(C)CC(C)(C1)CC(N=[N+]=[N-])(C2)C3 | > 100 µM | > 100 µM | > 100 µM | > 100 µM | > 100 µM | > 100 µM | > 100 µM | > 100 µM | > 100 µM |  |  |  |  |  |  |  |  |  |  | 
12 | O=C(CC(C(=O)c1cccs1)c1ccc2c(c1)OCO2)c1ccc(Br)cc1 (stereo not given) | > 100 µM | > 100 µM |  | > 100 µM | > 100 µM | > 100 µM | > 100 µM | > 100 µM | > 100 µM |  | > 100 µM |  |  |  |  |  |  |  |  | 
13 | Cc1cc2c(C(C)C)c(O)c(O)c(C=Nc3cc(C(F)(F)F)ccc3Cl)c2c(O)c1-c1c(C)cc2c(C(C)C)c(O)c(O)c(C=Nc3cc(C(F)(F)F)ccc3Cl)c2c1O | > 100 µM | > 100 µM | > 100 µM | > 100 µM |  | 54 µM | > 100 µM | > 100 µM | > 100 µM |  | 78.5 µM |  |  |  |  |  |  |  |  | 
14 | Cc1cc(Cl)ccc1NC(=O)C(=O)Cc1nc2ccc(C(=O)c3ccccc3)cc2[nH]c1=O |  | > 100 µM | > 100 µM | > 100 µM | > 100 µM | > 100 µM | > 100 µM | > 100 µM | > 100 µM |  | > 100 µM |  |  |  |  |  |  |  |  | 
15 | Clc1ccc([O][In]([O]c2ccc(Cl)cn2)[O]c2ccc(Cl)cn2)nc1 |  | > 100 µM | > 100 µM | > 100 µM | 47.5 µM | > 100 µM | > 100 µM | > 100 µM | > 100 µM |  |  |  | > 100 µM | > 100 µM | > 100 µM | 25.2 µM | > 100 µM | > 100 µM | 64.4 µM | > 100 µM
16 | COc1ccc(C(C2=C(C)C(=O)c3ccccc3C2=O)c2ccc(C(C)C)cc(=O)c2O)cc1 (stereo not given) | > 100 µM |  | 8.54 µM | 23 µM | 23 µM | 14.6 µM | 8.4 µM | > 100 µM |  |  | 10.6 µM |  |  |  |  |  |  |  |  | 
